A value given as a limit tells only on which side of the number the result lay.

The target in test [1] is T1, ERα (Homo sapiens, UniProt P03372).
T1 construct: endogenous in cells; host or cells: MCF-7
T1 sequence (P03372 1-595): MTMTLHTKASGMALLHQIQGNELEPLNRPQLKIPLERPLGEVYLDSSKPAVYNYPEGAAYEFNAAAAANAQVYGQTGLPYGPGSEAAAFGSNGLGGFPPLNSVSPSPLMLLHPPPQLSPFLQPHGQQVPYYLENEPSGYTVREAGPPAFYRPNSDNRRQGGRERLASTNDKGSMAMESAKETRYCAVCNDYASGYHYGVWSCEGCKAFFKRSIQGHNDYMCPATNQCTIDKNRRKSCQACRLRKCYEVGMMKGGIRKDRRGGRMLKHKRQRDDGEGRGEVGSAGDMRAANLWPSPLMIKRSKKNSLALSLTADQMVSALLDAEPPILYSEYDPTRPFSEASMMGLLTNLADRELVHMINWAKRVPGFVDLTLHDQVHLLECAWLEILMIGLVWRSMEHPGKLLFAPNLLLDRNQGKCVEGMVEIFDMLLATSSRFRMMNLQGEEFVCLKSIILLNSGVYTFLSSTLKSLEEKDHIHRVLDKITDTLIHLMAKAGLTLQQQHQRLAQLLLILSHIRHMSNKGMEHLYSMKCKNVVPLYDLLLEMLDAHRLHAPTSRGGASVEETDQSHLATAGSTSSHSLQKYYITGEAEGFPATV
The experiment in a line: ER degradation in MCF-7 cells (Western blot). It counts as cell-based. To be noted: for DC50: ER degradation, 24 hours; for Dmax: MCF7, Maximal ER degradation, read-out: Dmax. An outline of the steps:
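MCF-7 cells treated with a range of compound concentrations for 24 hours, then lysed; 50 μg protein probed for ERα by Western blot with infrared imaging. DC50 is concentration giving 50% ER reduction; Dmax is the highest percentage reduction over the range tested.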

The target in test [2] is T2, ER (Homo sapiens, UniProt P03372).
T2 construct: endogenous in cells; host or cells: T47d-kb-Luc (T47D stably transfected with a luciferase reporter gene only)
T2 sequence (P03372 1-595): T1 sequence (P03372 1-595)
The test can be described thus: ER antagonism (T47D ERE luciferase), T47d-kb-Luc cells. The note with it: read-out: IC50 (ER antagonistm). It counts as cell-based. An outline of the steps:
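Stably transfected T47d-kb-Luc human breast cancer cells were used, and antagonism was measured as inhibition of estradiol-driven activity. Data were normalised to the estradiol control. Five concentrations were tested in quadruplicate across at least three experiments.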

In test [3] the test system is ST1799 PDX tumor. The test can be described thus: ST1799 patient derived breast tumor xenograft. The format is in vivo. To be noted: single agent versus vehicle control, p=0.0323; athymic nude female mice. An excerpt:
In Vivo Efficacy of Exemplary Compound 69 in ST1799 Patient Derived Breast Tumor Xenocraft
Patient-Derived Xenograft tumor fragments were harvested from host animals and implanted into 6-12 week old athymic nude female mice (Charles River NU(NCr)-Foxn1^nu). Treatment initiated at a mean tumor volume of approximately 175-300 mm^3.

In test [4] the test system is MCF-7 breast cancer cells. The test can be described thus: MCF-7 proliferation / cell viability assay. To be noted: Homo sapiens, MCF7; MCF-7 proliferation with 0.1 nM 17-beta estradiol; read-out: IC50 (anti-proliferation). The format is cell-based. In short, it runs like this: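 MCF-7 cells in 5% FBS DMEM were exposed for 5 days to compound at 6 doses from 10^−10 M to 10^−5 M, with DMSO as vehicle. Viable cells were counted by Coulter counter. Survival ratio = treated/vehicle viable cell number, vehicle set to 100%.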

For the compound `CC/C(=C(/c1ccc(OCCN2CCN(CC3CCN(c4ccc5c(c4)CN([C@H]4CCC(=O)NC4=O)C5=O)CC3)CC2)cc1)c1ccc(B(O)O)cc1)c1ccccc1` [Compound 69], in test [1], the DC50 (usually the midpoint of the concentration-degradation curve) was less than 10 nM and the maximal degradation (Dmax) – broadly, the largest share of the target that was removed – was greater than 90%. Moreover, the IC50 in test [2] is less than 10 nM. Besides, in test [3], the tumor growth inhibition result is listed as “statistically significant tumor growth inhibition”. Further, in test [4], the IC50 was less than 10 nM.
In the case of `CC/C(=C(/c1ccc(OCCN2CCC(CN3CCN(c4ccc5c(c4)CN([C@@H]4CCC(=O)NC4=O)C5=O)CC3)CC2)cc1)c1ccc(B(O)O)cc1)c1ccccc1` [Compound 74, (R,Z)-(4-(1-(4-(2-(4-((4-(2-(2,6-dioxopiperidin-3-yl)-1-oxoisoindolin-5-yl)piperazin-1-yl)methyl)piperidin-1-yl)ethoxy)phenyl)-2-phenylbut-1-en-1-yl)phenyl)boronic acid], in test [1], the DC50 was less than 10 nM and the Dmax is greater than 90%. Further, the IC50 in test [2] was less than 10 nM. Moreover, the IC50 in test [4] was less than 10 nM.
For `CC/C(=C(/c1ccc(B(O)O)cc1)c1ccc(N2CCC(CNC3CCN(c4ccc5c(c4)C(=O)N(C4CCC(=O)NC4=O)C5=O)CC3)CC2)cc1)c1ccccc1` (centres unmarked) [Compound 40, (E)-(4-(1-(4-(4-(((1-(2-(2,6-dioxopiperidin-3-yl)-1,3-dioxoisoindolin-5-yl)piperidin-4-yl)amino)methyl)piperidin-1-yl)phenyl)-2-phenylbut-1-en-1-yl)phenyl)boronic acid], the DC50 in test [1] was less than 10 nM. The maximal degradation (Dmax) in test [1] was greater than 90%. For the same compound, the IC50 in test [2] and in test [4] was 10 to 50 nM throughout.
Take `CC/C(=C(/c1ccc(OCCN2CCC(CN3CCN(c4ccc5c(c4)CN([C@H]4CCC(=O)NC4=O)C5=O)CC3)CC2)cc1)c1ccc(B(O)O)cc1)c1ccccc1` [Compound 73, (S,Z)-(4-(1-(4-(2-(4-((4-(2-(2,6-dioxopiperidin-3-yl)-1-oxoisoindolin-5-yl)piperazin-1-yl)methyl)piperidin-1-yl)ethoxy)phenyl)-2-phenylbut-1-en-1-yl)phenyl)boronic acid]: in test [1], the DC50 is less than 10 nM and the maximal degradation (Dmax) was greater than 90%. In addition, the IC50 in test [2] is less than 10 nM. Also, the IC50 in test [4] was less than 10 nM.
The compound `CC/C(=C(/c1ccc(OCCN2CCN(CCN3CCN(c4ccc5c(c4)C(=O)N(C4CCC(=O)NC4=O)C5=O)CC3)CC2)cc1)c1ccc(B(O)O)cc1)c1ccccc1` (centres unmarked) [Compound 23, (Z)-(4-(1-(4-(2-(4-(2-(4-(2-(2,6-dioxopiperidin-3-yl)-1,3-dioxoisoindolin-5-yl)piperazin-1-yl)ethyl)piperazin-1-yl)ethoxy)phenyl)-2-phenylbut-1-en-1-yl)phenyl)boronic acid] displayed a DC50 in test [1] of less than 10 nM. Besides, the maximal degradation (Dmax) in test [1] was greater than 90%. Also, the IC50 in test [2] and in test [4] was 10 to 50 nM throughout.
Regarding `CC/C(=C(\c1ccc(B(O)O)cc1)c1ccc(N2CCC(CCCN3CCN(c4ccc5c(c4)C(=O)N(C4CCC(=O)NC4=O)C5=O)CC3)CC2)cc1)c1ccccc1` (centres unmarked) [Compound 51, (Z)-(4-(1-(4-(4-(3-(4-(2-(2,6-dioxopiperidin-3-yl)-1,3-dioxoisoindolin-5-yl)piperazin-1-yl)propyl)piperidin-1-yl)phenyl)-2-phenylbut-1-en-1-yl)phenyl)boronic acid], in test [1], the half-maximal degradation concentration (DC50) was less than 10 nM and the Dmax was greater than 90%. Also, in test [2], the IC50 was in the range of 10 to 50 nM. In test [4], the IC50 was in the range of 10 to 50 nM.
Consider `CC/C(=C(/c1ccc(OCCN2CCN(C(=O)N3CCN(c4ccc5c(c4)CN(C4CCC(=O)NC4=O)C5=O)CC3)CC2)cc1)c1ccc(B(O)O)cc1)c1ccccc1` (centres unmarked) [Compound 83, (Z)-(4-(1-(4-(2-(4-(4-(2-(2,6-dioxopiperidin-3-yl)-1-oxoisoindolin-5-yl)piperazine-1-carbonyl)piperazin-1-yl)ethoxy)phenyl)-2-phenylbut-1-en-1-yl)phenyl)boronic acid], for which, in test [1], the 50% degradation concentration (DC50) is less than 10 nM and the Dmax is greater than 90%. Besides, in test [2], the IC50 is less than 10 nM. For the same compound, in test [4], the IC50 was less than 10 nM.
